Marks after values point to notes of the source that are not given here.
What was measured:
MRSA = assay: Drop test assay, growth on THY agar; format: cell-based, Staphylococcus aureus; settings: PBT2 (1.5 μM), zinc(II) ions (400 μM)
Experimental: (§1) FIG. 1a illustrates growth of GAS, MRSA and VRE on THY agar in the presence or absence of PBT2 (1.5 μM) and zinc(II) ions (400 μM).
(§2) Bacteria were diluted from overnight cultures to get a starting OD600 of 0.01 in THY. Once the bacteria grew to an OD600 of 0.6, the culture were serially diluted in PBS and 5 μL of each dilution (undiluted, 10^−1, 10^−2, 10^−3, 10^−4, 10^−5) was plated on THY agar plates with or without zinc (400 μM) and/or PBT2 ([…]). Plates were incubated at 37° C. overnight. Drop tests were undertaken in biological triplicates.

[1] = test system: GAS strain HKU16 (Streptococcus pyogenes strain HKU16); assay: microbe, parasite or virus in culture; format: cell-based
Experimental: (§3) J. Path. Bact. […] Proc. Soc.
(§4) MIC assays were carried out in biological triplicates.
(§5) M100 Performance Standards for Antimicrobial Susceptibility Testing, 27th Edition.

[2] = test system: Methicillin-resistant Staphylococcus aureus (MRSA) strain USA300; assay: MIC by broth microdilution (CLSI)
Experimental: GAS HKU16, MRSA USA300, VRE RBWH1, Klebsiella pneumoniae strain MS6771, E. coli strain MS8345 and Streptococcus pneumoniae strain 23F were grown in Todd-Hewitt broth (THB) or agar with 1% yeast extract (THY) [Todd, E. W. & Hewitt, L. F. A new culture medium for the production of antigenic streptococcal haemolysin. […] Bacteria were routinely grown at 37° C. in ambient air.
MICs were determined by broth microdilution in accordance to CLSI guidelines (“Methods for Dilution Antimicrobial Susceptibility Tests for Bacteria That Grow Aerobically”, Clinical and Laboratory Standards Institute) [Clinical and Laboratory Standards Institute. […] For MRSA, VRE, Klebsiella pneumoniae and E. coli the assays were performed in MHB, and for GAS and Streptococcus pneumoniae MHB+2.5% lysed horse blood (LHB) was used. The bacterial inoculum was prepared by direct colony suspension aiming for 2-8×10^5 colony forming units (CFU)/mL bacteria per well. Antibiotics/compounds were serially diluted two-fold across the 96-well plate, the last column contained no antibiotics/compounds. The inoculum was added to the plate containing antibiotic/compound and incubated for 16-24 h at 35+/−2° C. […] MIC assays were carried out in biological triplicates.
Using Clinical and Laboratory Standards Institute guidelines for antimicrobial sensitivity testing [Clinical and Laboratory Standards Institute.

[3] = test system: Vancomycin-resistant Enterococci (VRE) clinical isolate RBWH1; assay: MIC by broth microdilution (CLSI); format: cell-based, Enterococcus
Experimental: as §3, §4, §5

GAS = assay: Drop test assay, growth on THY agar; format: cell-based, Streptococcus pyogenes; settings: PBT2 (1.5 μM), zinc(II) ions (400 μM)
Experimental: as §1, §2

VRE = assay: Drop test assay, growth on THY agar; format: cell-based, Enterococcus; settings: PBT2 (1.5 μM), zinc(II) ions (400 μM)
Experimental: as §1, §2

[4] = test system: P. aeruginosa strain 253-43-C; assay: MIC by broth microdilution (CLSI); format: cell-based, Pseudomonas aeruginosa
Experimental: They were obtained from Jan Bell, Australian Centre of Microbial Resistance Ecology (ACARE), University of Adelaide, Australia.
(§6) (2017)]. […] MIC assays were carried out in biological triplicates.

[5] = test system: Klebsiella pneumoniae strain MS6771; assay: MIC by broth microdilution (CLSI); format: cell-based
[6] = test system: MCR-1 E. coli strain MS8345; assay: MIC by broth microdilution (CLSI); format: cell-based, Escherichia coli; settings: for antibiotic sensitivity of resistant strain: MCR1-positive E. coli MS8345; for MIC: MCR-1 E. coli
Experimental: as §3
J Infect Dis. 1995 171:890-6). E. coli strain MS8345 is a MCR-1 resistant clinical isolate supplied by Prof. D. L. Paterson, University of Queensland Centre for Clinical Research.
as §6

Molecule: [Zn+2] [Zinc(II) ion]
- antibacterial activity (MRSA): neither PBT2 nor zinc(II) ions (in the form of zinc chloride) displayed antibacterial activity
- MIC ([1]; GAS HKU 16, substance alone): 2 mM
- MIC ([2]; MRSA USA300, substance alone): 3 mM
- MIC ([3]; VRE RBWH1, substance alone): 3 mM
- antibacterial activity (GAS): neither PBT2 nor zinc(II) ions (in the form of zinc chloride) displayed antibacterial activity
- antibacterial activity (VRE): neither PBT2 nor zinc(II) ions (in the form of zinc chloride) displayed antibacterial activity

Molecule: polymyxin B
- MIC ([4]; PBT2): 1 µg/mL
- MIC ([4]; Untreated): 8 µg/mL
- MIC ([5]; K. pneumoniae, RA-HQ-12: 16 μM, Zn: 64 μM): 4^# μg/mL
- antibiotic resensitization ([5]; Klebsiella pneumoniae MS6771, RA-HQ-12+zinc(II) ions (ZnSO4)): resensitize
- antibiotic sensitivity of resistant strain ([5]; Klebsiella pneumoniae MS6771, addition of sub-inhibitory PBT2+zinc(II) ions): became sensitive
- antibiotic sensitivity of resistant strain ([5]; Klebsiella pneumoniae MS6771, combination with PBT2, no zinc): resulted in sensitivity
- MIC ([5]; Klebsiella pneumoniae, CQ: 0 μM, Zinc: 0 μM): 64 µg/mL
- MIC ([5]; Klebsiella pneumoniae, CQ: 64 μM): 2 µg/mL
- MIC ([5]; Klebsiella pneumoniae, CQ: 64 μM, Zinc: 256 μM): 2 µg/mL
- MIC ([5]; Klebsiella pneumoniae, PBT2: 0 μM, Zinc: 0 μM): 32 to 64 µg/mL
- MIC ([5]; Klebsiella pneumoniae, Zinc: 256 μM (CQ panel)): 32 to 64 µg/mL
- MIC ([5]; Klebsiella pneumoniae, Zinc: 256 μM (PBT2 panel)): 32 to 64 µg/mL
- antibiotic resensitization ([1]; GAS HKU16, RA-HQ-12+zinc(II) ions (ZnSO4)): resensitize
- antibiotic sensitivity of resistant strain ([1]; GAS HKU16, addition of sub-inhibitory PBT2+zinc(II) ions): became sensitive
- MIC ([1]; GAS, RA-HQ-12: 3.5 μM, Zn: […]): 4^# μg/mL
- MIC ([1]; Streptococcus pyogenes HKU16, CQ: 0 μM, Zinc: 0 μM): 64 µg/mL
- MIC ([1]; Streptococcus pyogenes HKU16, CQ: 6 μM): 32 µg/mL
- MIC ([1]; Streptococcus pyogenes HKU16, CQ: 6 μM, Zinc: 80 μM): 1 µg/mL
- MIC ([1]; Streptococcus pyogenes HKU16, PBT2: 0 μM, Zinc: 0 μM): 64 to 128 µg/mL
- MIC ([1]; Streptococcus pyogenes HKU16, PBT2: 4.75 μM): 32 µg/mL
- MIC ([1]; Streptococcus pyogenes HKU16, PBT2: 4.75 μM, Zinc: […]): 1 to 2 µg/mL
- MIC ([1]; Streptococcus pyogenes HKU16, Zinc: 80 μM): 64 µg/mL
- MIC ([1]; Streptococcus pyogenes HKU16, Zinc: […] (PBT2 panel)): 64 µg/mL
- MIC ([2]; MRSA USA300, CQ: 1 μM): 64 µg/mL
- MIC ([2]; MRSA USA300, CQ: 1 μM, Zinc: 32 μM): 2 µg/mL
- MIC ([2]; MRSA USA300, PBT2: 0 μM, Zinc: 0 μM): 64 µg/mL
- MIC ([2]; MRSA USA300, PBT2: 2 μM): 64 µg/mL
- MIC ([2]; MRSA USA300, PBT2: 2 μM, Zinc: 50 μM): 2 µg/mL
- antibiotic resensitization ([2]; MRSA USA 300, RA-HQ-12+zinc(II) ions (ZnSO4)): resensitize
- MIC ([2]; MRSA USA300, Zinc: 50 μM): 64 µg/mL
- antibiotic sensitivity of resistant strain ([2]; MRSA USA300, addition of sub-inhibitory PBT2+zinc(II) ions): became sensitive
- MIC ([2]; MRSA, RA-HQ-12: 3.5 μM, Zn: […], oxacillin with 2% NaCl): 4^# μg/mL
- MIC ([2]; MRSA, RA-HQ-12: 3.5 μM, oxacillin with 2% NaCl): 32 µg/mL
- MIC ([3]; VRE RBWH1, CQ: 2.5 μM): 64 µg/mL
- MIC ([3]; VRE RBWH1, CQ: 2.5 μM, Zinc: 32 μM): 0.5 to 1 µg/mL
- MIC ([3]; VRE RBWH1, PBT2: 1.75 μM): 64 µg/mL
- MIC ([3]; VRE RBWH1, PBT2: 1.75 μM, Zinc: […]): 0.5 µg/mL
- antibiotic resensitization ([3]; VRE RBWH1, RA-HQ-12+zinc(II) ions (ZnSO4)): resensitize
- antibiotic sensitivity of resistant strain ([3]; VRE RBWH1, addition of sub-inhibitory PBT2+zinc(II) ions): became sensitive
- MIC ([3]; VRE, RA-HQ-12: 3.5 μM): 16 µg/mL
- MIC ([3]; VRE, RA-HQ-12: 3.5 μM, Zn: […]): 4^# μg/mL
- antibiotic sensitivity of resistant strain ([6]; addition of sub-inhibitory PBT2+zinc(II) ions): became sensitive
- antibiotic sensitivity of resistant strain ([6]; combination with PBT2, no zinc): resulted in sensitivity
- MIC ([6]; CQ: 0 μM, Zinc: 0 μM): 8 µg/mL
- MIC ([6]; CQ: 5 μM): 2 to 4 µg/mL
- MIC ([6]; CQ: 5 μM, Zinc: 25 μM): 1 µg/mL
- MIC ([6]; PBT2: 0 μM, Zinc: 0 μM): 8 µg/mL
- MIC ([6]; PBT2: 7 μM): 1 µg/mL
- MIC ([6]; PBT2: 7 μM, Zinc: 200 μM): 0.5 µg/mL
- MIC ([6]; Zinc: 25 μM): 8 µg/mL
- MIC ([6]; Zinc: 200 μM): 8 µg/mL

From patent US20200261440A1, “ZINC IONOPHORES AND USES THEREOF” (THE UNIVERSITY OF QUEENSLAND, priority 2017, published 2020)
